From US20140275509A1, “MULTIFUNCTIONALIZED MATERIALS” (Nanoimmunotech SRL, priority 2011, published 2014)

Tested on: Human tumor cells Hmy-2 (HLA-DR class II positive B cell line)
Experiment: Recognition, internalization, labeling and drug release
Format: cell-based
Conditions: drug transported into the cell by cyclodextrin on the BH1/fluorophore/penetrating peptide gold nanoparticles, 1:1:1:1 molar ratio
Description: The antibody described above, BH1 functionalized with the PNA-B sequence, has been conjugated to 13 nm gold nanoparticles previously functionalized with the PNA-A sequence by means of the complementary strand hybridization technique. […] On the other hand and due to the possibility of producing a multifunctionalization by using the presented technology, molecules of a cell-penetrating peptide with the DNA-B sequence could further be bound to the nanostructures by hybridization, as occurred with BH1 to the nanoparticles. Furthermore and continuing with the possibility of producing multifunctionalization by using the presented technology, fluorescent labeling molecules functionalized with the DNA-B sequence could be bound to the previous nanostructures by hybridization, as occurred with the BH1 to the nanoparticles. […] To conclude and continuing with multifunctionalization allowed by the presented technology, molecules of cyclodextrin functionalized with the DNA-B sequence could be bound to the previous nanostructures by hybridization as occurred with BH1, fluorophore and penetrating peptide to the nanoparticles, using a 1:1:1:1 molar ratio, respectively.

For `CC1(C)CCC2=C(O1)c1ccccc1C(=O)C2=O` [β-Lapachone], the cell death was “selectively induced cell death”.
